According to patent publication US20260216238A1, “TETRATHIOMOLYBDIC ACID FOR USE IN TREATING COPPER METABOLISM-ASSOCIATED DISEASES OR DISORDERS (WILSON DISEASE)” (Alexion Pharmaceuticals, Inc., priority 2023, published 2026):
Where two headings read alike, the source gives them in different places.

How the values were obtained:
[1] = tested on: patients with Wilson disease (WD); type: in vivo
Excerpt: Adverse events were reported by the patient (or, when appropriate, by a caregiver, surrogate, or the patient's legally authorized representative). The Investigator and any qualified designees were responsible for detecting, documenting, and recording events that meet the definition of an AE or SAE and remain responsible for following up AEs that were serious, considered related to the study intervention or study procedures, or that caused the patient to discontinue the study.
The safety analysis was performed on the Safety Analysis Set. This dataset includes all patients who received at least 1 dose of randomized treatment. Patients were summarized according to the treatment actually received.
Acute worsening of neurologic symptoms typically within 6 months of start of therapy is a known complication associated with chelation therapy for WD. […] Neurologic AESI for Study 301 were considered as all AEs in the Medical Dictionary for Regulatory Activities (MedDRA) System Organ Class (SOC) “Nervous system disorders” or any other AE judged by the Investigator as an AESI.

[2] = tested on: patients with Wilson disease (WD); test: Clinical Global Impression-Severity scale (CGI-S); type: in vivo, human; settings: for CGI-S (1 to 7, 1 is normal) change from baseline, LSM / CGI-S (1 to 7, 1 is normal) change from baseline, Mean: Study 301 TTM long term set
Excerpt: Clinical Global Impression-[…]: The Clinical Global Impression (CGI) rating scales were commonly used measures of symptom severity, treatment response, and the efficacy of treatments in treatment studies of adult and pediatric patients with mental disorders.
The Clinical Global Impression-Severity scale (CGI-S) is a 7-point scale that requires the clinician to rate the severity of the patient's illness at the time of assessment, relative to the clinician's past experience with patients who have the same diagnosis. Considering total clinical experience, a patient was assessed on severity of illness at the time of rating as: 1, normal, not at all ill; 2, borderline ill; 3, mildly ill; 4, moderately ill; 5, markedly ill; 6, severely ill; or 7, extremely ill.

[3] = tested on: patients with Wilson disease (WD); test: Study 301: adverse events in participants who switched from SoC to TTM in the Extension Period; settings: SoC: Weeks 0-48, N=70; TTM after switch: Weeks 49-96, N=61
participants with WD = tested on: participants with WD
Excerpt: The term “dNCC” refers to NCC as directly measured using an NCC assay. For example, in certain embodiments of the methods, uses, or compositions (e.g., comprising tetrathiomolybdic acid or a pharmaceutically acceptable salt thereof) of the disclosure, dNCC is directly measured using the NCC assay as disclosed in PCT Patent Application Publication No. WO2021/050850, filed on Sep.
These participants had all intake (food and drink) and output (urine and feces) collected from Day −4 through Day −1 (baseline), from Day 1 through Day 8, and Day 25 through Day 39.

[4] = Primary Evaluation Period, 48 Weeks
[5] = Subpopulation E, Baseline, TTM N=104, SoC N=56
[6] = Subpopulation E, Week 48, TTM N=89, SoC N=47

Substance: bis-choline tetrathiomolybdate [TTM]
- AEs in SOC Ear and labyrinth disorders ([1]; Primary Evaluation Period): 5.1%
- AEs in SOC Hepatobiliary disorders ([1]; Primary Evaluation Period): 6.6%
- AEs in SOC Investigations ([1]; Primary Evaluation Period): 33.6%
- AEs in SOC Psychiatric disorders ([1]; Primary Evaluation Period): 19.0%
- AEs in SOC Skin and subcutaneous tissue disorders ([1]; Primary Evaluation Period): 21.9%
- incidence of SAEs, Nervous system disorders ([1]; Primary Evaluation Period): 4.4%
- incidence of headache ([1]; Primary Evaluation Period): 8.0%
- incidence of tremor ([1]; Primary Evaluation Period): 7.3%
- participants with highest severity Grade 1 AEs, Nervous system disorders ([1]; Primary Evaluation Period): 24.1%
- participants with highest severity Grade 2 AEs, Nervous system disorders ([1]; Primary Evaluation Period): 13.9%
- Alanine aminotransferase increased AE, % participants [1, 4]: 14.6%
- Alanine aminotransferase increased AE, N participants [1, 4]: 20
- Aspartate aminotransferase increased AE, % participants [1, 4]: 2.9%
- Aspartate aminotransferase increased AE, N participants [1, 4]: 4
- Ear and labyrinth disorders (SOC) AE, % participants [1, 4]: 5.1%
- Ear and labyrinth disorders (SOC) AE, N participants [1, 4]: 7
- Fatigue AE, % participants [1, 4]: 9.5%
- Fatigue AE, N participants [1, 4]: 13
- Gamma-glutamyltransferase increased AE, % participants [1, 4]: 2.2%
- Gamma-glutamyltransferase increased AE, N participants [1, 4]: 3
- Hepatic enzyme increased AE, % participants [1, 4]: 2.2%
- Hepatic enzyme increased AE, N participants [1, 4]: 3
- Hepatobiliary disorders (SOC) AE, % participants [1, 4]: 6.6%
- Hepatobiliary disorders (SOC) AE, N participants [1, 4]: 9
- Investigations (SOC) AE, % participants [1, 4]: 33.6%
- Investigations (SOC) AE, N participants [1, 4]: 46
- Nervous system disorders (SOC) AE, % participants [1, 4]: 34.3%
- Nervous system disorders (SOC) AE, N participants [1, 4]: 47
- Neutrophil count decreased AE, % participants [1, 4]: 1.5%
- Neutrophil count decreased AE, N participants [1, 4]: 2
- Pruritus AE, % participants [1, 4]: 3.6%
- Pruritus AE, N participants [1, 4]: 5
- Psychiatric disorders (SOC) AE, % participants [1, 4]: 19.0%
- Psychiatric disorders (SOC) AE, N participants [1, 4]: 26
- Pyrexia AE, % participants [1, 4]: 5.8%
- Pyrexia AE, N participants [1, 4]: 8
- Rash AE, % participants [1, 4]: 6.6%
- Rash AE, N participants [1, 4]: 9
- Skin and subcutaneous tissue disorders (SOC) AE, % participants [1, 4]: 21.9%
- Skin and subcutaneous tissue disorders (SOC) AE, N participants [1, 4]: 30
- incidence of AEs in SOC Nervous system disorders [1, 4]: 34.3%
- patients with neurologic AEs ([1]; cohort 1 incomplete response or intolerant): 31.8%
- participants with neurologic AESI in SOC Psychiatric disorders ([1]; seven events in 5 participants): 3.6%
- CGI-S (1-7, 1 is normal), Change from Baseline at 48 weeks, LSM ([2]; Study 301 Full Analysis Set): −0.3
- CGI-S (1-7, 1 is normal), Change from Baseline at 48 weeks, Mean ([2]; Study 301 Full Analysis Set): −0.5
- CGI-S, Max [2, 5]: 6
- CGI-S, Mean [2, 5]: 2.9
- CGI-S, Min [2, 5]: 1,
- CGI-S, Change from Baseline, LSM ([2]; Subpopulation E, Week 48): −0.4
- CGI-S, Change from Baseline, LSM Diff (SE) (TTM vs SoC) ([2]; Subpopulation E, Week 48): −0.2 (0.13)
- CGI-S, Change from Baseline, Max [2, 6]: 1
- CGI-S, Change from Baseline, Mean [2, 6]: −0.4
- CGI-S, Change from Baseline, Median [2, 6]: 0.0
- CGI-S, Change from Baseline, Min [2, 6]: −3,
- CGI-S, Change from Baseline, Q1 [2, 6]: −1.0,
- CGI-S, Change from Baseline, Q3 [2, 6]: 0.0
- CGI-S, Difference at 48 weeks, LSM ([2]; TTM vs SoC, P 0.2290): −0.2
- CGI-S (1 to 7, 1 is normal) change from baseline, LSM ([2]; Week 24): −0.3
- CGI-S (1 to 7, 1 is normal) change from baseline, Mean ([2]; Week 24): −0.2
- CGI-S (1 to 7, 1 is normal) change from baseline, LSM ([2]; Week 48): −0.4
- CGI-S (1 to 7, 1 is normal) change from baseline, Mean ([2]; Week 48): −0.5
- CGI-S (1 to 7, 1 is normal) change from baseline, LSM ([2]; Week 72): −0.5
- CGI-S (1 to 7, 1 is normal) change from baseline, Mean ([2]; Week 72): −0.6
- CGI-S (1 to 7, 1 is normal) change from baseline, LSM ([2]; Week 96): −0.5
- CGI-S (1 to 7, 1 is normal) change from baseline, Mean ([2]; Week 96): −0.6
- CGI-S (1 to 7, 1 is normal) change from baseline, LSM ([2]; Week 120): −0.7
- CGI-S (1 to 7, 1 is normal) change from baseline, Mean ([2]; Week 120): −0.6
- CGI-S (1 to 7, 1 is normal) change from baseline, LSM ([2]; Week 144): −0.6
- CGI-S (1 to 7, 1 is normal) change from baseline, Mean ([2]; Week 144): −0.6
- Musculoskeletal and connective tissue disorders, E (events) [3]: 7
- Musculoskeletal and connective tissue disorders, participants with AE [3]: 7 (11.5) N (%)
- Increase from Baseline in Directly Measured NCC, Mean (participants with WD; Day 1, 2 Hours Post-Dose): 0.5004 µmol/L
- Increase from Baseline in Directly Measured NCC, Mean (participants with WD; Day 1, 4 Hours Post-Dose): 1.96 µmol/L
- Increase from Baseline in Directly Measured NCC, Mean (participants with WD; Day 1, 5 Hours Post-Dose): 2.719 µmol/L
- Increase from Baseline in Directly Measured NCC, Mean (participants with WD; Day 1, 6 Hours Post-Dose): 2.324 µmol/L
- Increase from Baseline in Directly Measured NCC, Mean (participants with WD; Day 1, 8 Hours Post-Dose): 2.402 µmol/L
- Increase from Baseline in Directly Measured NCC, Mean (participants with WD; Day 1, 12 Hours Post-Dose): 1.725 µmol/L
- Increase from Baseline in Directly Measured NCC, Mean (participants with WD; Day 1, 24 Hours Post-Dose): 1.063 µmol/L
- Increase from Baseline in Directly Measured NCC, Mean (participants with WD; Day 4, Pre-Dose): 2.677 µmol/L
- Increase from Baseline in Directly Measured NCC, Mean (participants with WD; Day 5, Pre-Dose): 3.144 µmol/L
- Increase from Baseline in Directly Measured NCC, Mean (participants with WD; Day 6, Pre-Dose): 3.574 µmol/L
- Increase from Baseline in Directly Measured NCC, Mean (participants with WD; Day 7, Pre-Dose): 3.7 µmol/L
- Increase from Baseline in Directly Measured NCC, Mean (participants with WD; Day 25, 2 Hours Post-Dose): 2.551 µmol/L
- Increase from Baseline in Directly Measured NCC, Mean (participants with WD; Day 25, 4 Hours Post-Dose): 3.443 µmol/L
- Increase from Baseline in Directly Measured NCC, Mean (participants with WD; Day 25, 5 Hours Post-Dose): 3.38 µmol/L
- Increase from Baseline in Directly Measured NCC, Mean (participants with WD; Day 25, 6 Hours Post-Dose): 4.44 µmol/L
- Increase from Baseline in Directly Measured NCC, Mean (participants with WD; Day 25, 8 Hours Post-Dose): 5.101 µmol/L
- Increase from Baseline in Directly Measured NCC, Mean (participants with WD; Day 25, 12 Hours Post-Dose): 4.917 µmol/L
- Increase from Baseline in Directly Measured NCC, Mean (participants with WD; Day 25, 24 Hours Post-Dose): 3.438 µmol/L
- Increase from Baseline in Directly Measured NCC, Mean (participants with WD; Day 25, −0.5 Hours): 2.121 µmol/L
- Increase from Baseline in Directly Measured NCC, Mean (participants with WD; Day 27, Pre-Dose, N=2): 2.767 µmol/L
- Increase from Baseline in Directly Measured NCC, Mean (participants with WD; Day 28, Pre-Dose, N=2): 2.327 µmol/L
- Increase from Baseline in Directly Measured NCC, Mean (participants with WD; Day 29, 2 Hours Post-Dose): 2.814 µmol/L
- Increase from Baseline in Directly Measured NCC, Mean (participants with WD; Day 29, 4 Hours Post-Dose): 3.38 µmol/L
- Increase from Baseline in Directly Measured NCC, Mean (participants with WD; Day 29, 5 Hours Post-Dose): 4.078 µmol/L
- Increase from Baseline in Directly Measured NCC, Mean (participants with WD; Day 29, 6 Hours Post-Dose): 4.686 µmol/L
- Increase from Baseline in Directly Measured NCC, Mean (participants with WD; Day 29, 8 Hours Post-Dose): 5.305 µmol/L
- Increase from Baseline in Directly Measured NCC, Mean (participants with WD; Day 29, 12 Hours Post-Dose): 4.749 µmol/L
- Increase from Baseline in Directly Measured NCC, Mean (participants with WD; Day 29, 24 Hours Post-Dose): 3.543 µmol/L
- Increase from Baseline in Directly Measured NCC, Mean (participants with WD; Day 29, −0.5 Hours): 2.662 µmol/L
- Increase from Baseline in Directly Measured NCC, Mean (participants with WD; Day 31, Pre-Dose, N=2): 4.121 µmol/L
- Increase from Baseline in Directly Measured NCC, Mean (participants with WD; Day 32, Pre-Dose, N=1): 8.131 µmol/L
- Increase from Baseline in Directly Measured NCC, Mean (participants with WD; Day 33, Pre-Dose, N=2): 4.231 µmol/L
- Increase from Baseline in Directly Measured NCC, Mean (participants with WD; Day 34, Pre-Dose, N=2): 4.103 µmol/L
- Increase from Baseline in Directly Measured NCC, Mean (participants with WD; Day 35, Pre-Dose, N=2): 4.49 µmol/L
- Increase from Baseline in Directly Measured NCC, Mean (participants with WD; Day 36, Pre-Dose, N=2): 3.465 µmol/L
- Increase from Baseline in Directly Measured NCC, Mean (participants with WD; Day 37, Pre-Dose, N=2): 4.168 µmol/L
- Increase from Baseline in Directly Measured NCC, Mean (participants with WD; Day 38, Pre-Dose, N=1): 7.643 µmol/L
- Increase from Baseline in Directly Measured NCC, Mean (participants with WD; Day 39, 2 Hours Post-Dose): 3.816 µmol/L
- Increase from Baseline in Directly Measured NCC, Mean (participants with WD; Day 39, 4 Hours Post-Dose): 5.578 µmol/L
- Increase from Baseline in Directly Measured NCC, Mean (participants with WD; Day 39, 5 Hours Post-Dose): 6.26 µmol/L
- Increase from Baseline in Directly Measured NCC, Mean (participants with WD; Day 39, 6 Hours Post-Dose): 6.659 µmol/L
- Increase from Baseline in Directly Measured NCC, Mean (participants with WD; Day 39, 8 Hours Post-Dose): 7.32 µmol/L
- Increase from Baseline in Directly Measured NCC, Mean (participants with WD; Day 39, 12 Hours Post-Dose): 6.554 µmol/L
- Increase from Baseline in Directly Measured NCC, Mean (participants with WD; Day 39, 24 Hours Post-Dose): 4.545 µmol/L
- Increase from Baseline in Directly Measured NCC, Mean (participants with WD; Day 39, −0.5 Hours): 3.412 µmol/L
